melting point	Structure (SMILES)
124 °C	COc1c(OC)c(OC(C)=O)c2cc(C#N)ccc2c1OC(C)=O
214 to 215 °C	Cc1nc(-c2ccccc2)sc1C(=O)O
77.5 °C	CC(C=CC=C(C)C=CC1=C(C)C=CCC1(C)C)=CC=O
75 to 76 °C	O=S(=O)(Cl)c1cc2ccccc2s1
109 °C	Cc1cccc(Br)c1C(=O)O
70 °C	COc1cccc2[nH]ccc12
95 °C	CCN(CC)C(=O)c1ccc(O)c(OC)c1
176 °C	N#C/C(=N\Nc1cc(Cl)c(Cl)cc1Cl)c1nc(-c2ccc(Cl)cc2)cs1
112 °C	COc1ccc(S(N)(=O)=O)cc1
173 °C	CC(C)(C)c1ccc(C(N)=O)cc1
186 °C	CC1=C(C(=O)OC(C)C)C(c2ccc3c(c2)OCO3)NC(=O)N1 (stereo not drawn)
107 to 109 °C	CCNc1cc(NC(C)=O)ccc1C
105 to 106 °C	CCCOc1ccc(C(N)=NO)cc1
171 to 172 °C	Cc1nnc2sc(SCc3ccc(Cl)cc3)nn2c1=O
114 °C	Cc1ccc2c(Cl)cc(Cl)c(O)c2n1
97 to 98 °C	CCOc1nc2ccccc2c(=O)n1N
120 to 121 °C	COC(=O)C1(C(=O)OC)Cc2ccc(C)cc2C(=O)O1
195 to 207 °C	CC(=O)OC1CCC2(C)C(CCC3C2CCC2(C)C3CCC(=O)C2(C)OC(C)=O)C1 (stereo not drawn)
122 to 124 °C	Cn1ccc(-c2ccc(C(=O)Oc3c(F)c(F)c(F)c(F)c3F)cc2)n1
160 °C	O=C(O)COc1nn(Cc2ccccc2)c2ccccc12
119 °C	COc1cccc2c(=O)c(=O)c12
191 to 194 °C	O=C(O)c1ccc(O)cc1C(=O)O
277 °C	O=c1c(O)c(-c2ccc(O)cc2)oc2cc(O)cc(O)c12
69 to 72 °C	N#Cc1ccc(Cn2cncn2)cc1
118 to 119 °C	CC(=O)/C=C/c1oc2ccc(Cl)cc2c1-c1ccc(C)o1
70 to 71 °C	COC(=O)c1c(C)oc(C)c1S(=O)(=O)Cl

melting point	Structure (SMILES)
77.5 °C	CCC(C(=O)OC)c1ccccc1 (stereo not drawn)
207 to 209 °C	O=C1Cc2ccccc2C(=O)Cc2ccccc21
188 °C	CC(C)(C)N(NC(=O)c1ccccc1)C(=O)c1ccccc1I
281 °C	COc1ccc(NC=C2C(=O)NN=C2c2c(O)c3ccccc3n(C)c2=O)cc1
165 to 167 °C	CN(C)c1ccc(CNC2=CC(=O)c3ccccc3C2=O)cc1
210 to 212 °C	C/C(C#Cc1ccccc1)=C/C(C)=N/Nc1ccc([N+](=O)[O-])cc1[N+](=O)[O-]
48.5 °C	CC(C)(Oc1ccc(Cl)cc1)C(=O)OCc1cccnc1
58 °C	CC(=O)CCc1ccc(CCC(C)=O)c([N+](=O)[O-])c1
114 °C	COc1cc(-c2ccc(N=C=O)c(OC)c2)ccc1N=C=O
172 to 173 °C	CC(=O)OC1C2=C(C(=O)C(OC(C)=O)C3(CC3C)C2=O)C2(C)CCCC(C)(C)C2C1O (stereo not drawn)
140 to 142 °C	CCCCCCCCOc1ccc(NC(=O)c2ccc(C)cc2)cc1
100 °C	Cc1ccc2c3ccccc3c3ccccc3c2c1
95 to 98 °C	CCCSc1sc(C(=O)OC)c2c1C(=O)CC(C)(C)C2
139 °C	O=C(c1cccs1)c1noc(-c2ccc([N+](=O)[O-])cc2)c1S(=O)(=O)c1ccccc1
244 to 246 °C	CC(=O)NC1=NC(=O)C(=Cc2cc(=O)c3ccccc3o2)N1C
141 °C	O=C(O)COc1ccc(Cl)cc1CO
64 °C	COC(=O)c1ccc(Br)o1
204 to 208 °C	COc1ccccc1P(c1ccccc1OC)c1ccccc1OC
223 °C	Nc1ccc2c(C(F)(F)F)cc(=O)oc2c1
80 °C	N#CCc1ccc(OCc2ccccc2)c(OCc2ccccc2)c1
130 to 160 °C	Cc1cc(C)c(C(=O)O)c(C)n1
38 to 40 °C	N#Cc1ccc(CN2CCCCC2)cc1
174 °C	O=C(O)Cc1ccc(Cl)nc1
48 to 51 °C	O=S(=O)(Cl)c1ccc2c(c1)OCO2
154 °C	CC(=O)Nc1ccc(N)cn1
267 to 270 °C	Cc1ccc2oc(C(=O)O)cc(=O)c2c1

Continued, compound first:

Structure (SMILES)	melting point
C[Si](N[Si](C)(c1ccccc1)c1ccccc1)(c1ccccc1)c1ccccc1	91 °C
c1ccc2cc(Nc3ccc4ccccc4c3)ccc2c1	172 °C
O=Cc1ccc([N+](=O)[O-])cc1[N+](=O)[O-]	72 °C
BrCc1ccc(-c2ccccc2)cc1	86 to 87 °C
O=C(O)COc1cc(Cl)c(Cl)cc1Cl	156 °C
FC(F)(F)C(F)(F)C(Cl)Cl	-94 °C
Cc1nc(-c2cnccn2)sc1C(=O)Cl	101 °C
Cc1ccccc1NC(N)=S	162 °C
Nc1ncnc2c1cnn2CCO	218 °C
Nc1ncccc1OCc1ccccc1	94 to 98 °C
Cc1c(Cl)c(C)c([N+](=O)[O-])c(O)c1Cl	227 to 229 °C
O=C(c1ccccn1)c1ccccn1	53 to 55 °C
COc1ccccc1OP(=O)(Oc1ccccc1OC)Oc1ccccc1OC	91 °C
COc1ccc(C(=O)CCl)cc1	98 to 100 °C
O=C1CCC(=O)CC1	78 °C
Brc1ccc(N2CCCCC2)cc1	75 to 76 °C
CCOP(=S)(OCC)ON=C(C#N)c1ccccc1	6.1 °C
Cc1ccc(S(=O)(=O)OCCCCCCOS(=O)(=O)c2ccc(C)cc2)cc1	70.5 to 73 °C
CCOc1ccc(-c2nnc3n2NC(c2ccc(Cl)cc2)S3)cc1 (stereo not drawn)	109 °C
Cc1ccc(N)c(Cl)n1	88 to 91 °C
OCc1cccnc1Cl	54 to 55 °C

Structure (SMILES)	melting point
O=C(O)c1ccc2nccn2c1	250 °C
CC1(C)OC2OC(CO)C(O)C2O1 (stereo not drawn)	68 to 70 °C
N#CC(c1ccc(Cl)cc1)N1CCOCC1 (stereo not drawn)	76 to 77 °C
CC=C(c1ccccc1)c1ccccc1	49 °C
CNN	-21 °C
C=C(C)CC(C)=O	-72.6 °C
O=C(O)C(=CN(O)c1ccccc1)c1ccccc1	75 °C
C=CCn1c(=S)[nH]c2ccccc2c1=O	206 to 207 °C
O=C(CCCC(=O)c1ccccc1)c1ccccc1	64 to 67 °C
CC(C)(OC1CCCCC1)C(=O)O	75 °C
O=[N+]([O-])c1cccc(OCCCCBr)c1	62 to 63 °C
C#CC1(O)C=CC(O)(C#C)C=C1 (stereo not drawn)	125 °C
c1ccc2c(c1)[nH]c1cnccc12	199 to 201 °C
Nc1c([N+](=O)[O-])cc(Cl)cc1[N+](=O)[O-]	147 °C
[N-]=[N+]=Nc1ccc(Br)cc1	20 °C
NNC(=O)c1ccc(I)cc1	173 to 175 °C
O=C=Nc1c(Br)cc(F)cc1Br	44 °C
CCN(C(=S)Cl)c1ccccc1	56 to 58 °C
O=C1C(=O)C(Br)=C(Br)C(Br)=C1Br	143 to 148 °C
O=C(Cn1ccnc1[N+](=O)[O-])NCc1ccccc1	189 °C
FC(F)(F)C1N=NC(N=Cc2ccc(Cl)cc2)=N1 (stereo not drawn)	234 °C

Structure (SMILES)	melting point
O=S1(=O)CC(O)C(Cl)C1 (stereo not drawn)	163 to 165 °C
Cn1nc(C(C)(C)C)cc1N	157 °C
CN(N=O)C(N)=O	121 °C
C[Si](C)(C)NC(=O)N[Si](C)(C)C	232 °C
FC(F)(F)c1cc(-c2ccc3c(c2)OCO3)n[nH]1	177 to 179 °C
FC(F)C(F)F	-89 °C
CC1=C(O)C(=O)C2OC2C1=O (stereo not drawn)	127 °C
CC(C)(C)OC(=O)N1CC(C#N)C1	70 °C
C=C(C)C1CCC(C)=CC1c1c(O)cc(CCCCC)cc1O (stereo not drawn)	67 °C
c1cncc(-c2nc3ccccc3[nH]2)c1	257 °C
O=C(CCCl)N1CCc2ccccc21	83 to 85 °C
O=P(c1ccc(Cl)cc1)(c1ccc(Cl)cc1)c1ccc(Cl)cc1	176 to 178 °C
CCC(Br)(CC)C(N)=O	67 °C
CC(O)COC(C)(C)C (stereo not drawn)	-56 °C
C1=COCCC1	-70 °C
CC(C)N1C(=O)c2ccccc2NS1(=O)=O	140 °C
Clc1cc(Br)cc(Br)c1	93 °C
CCOC(=O)c1c(C)n[nH]c1N	108 °C
Fc1ccccc1-c1ccccc1F	112 to 114 °C
CC(C)OC(N)=O	93 °C
COc1cc(Cl)nc(N)n1	169 to 176 °C

Structure (SMILES)	melting point
FC(F)(F)c1ccc2c(Cl)ccnc2c1	69 to 73 °C
Clc1ccc(SCSc2ccc(Cl)cc2)cc1	47 °C
BrCc1ccc2nsnc2c1	91 °C
CC1C(c2ccc(Cl)cc2)SC(=O)N1C(=O)NC1CCCCC1 (stereo not drawn)	108 °C
NCc1ccc(Cl)nc1	30 °C
CCN(C(=O)n1nnn(-c2ccccc2Cl)c1=O)C1CCCCC1	79 °C
OCc1csc(-c2ccc(C(F)(F)F)cc2)n1	107 °C
O=C(NC(CO)(Cc1ccccc1)C(=O)O)c1ccccc1 (racemic)	160 to 162 °C
CCCCCCCCCCCCCC(=O)Nc1ccccc1	82 to 87 °C
CN1CCN(c2ccc(CO)cc2)CC1	118 to 119 °C
O=C1CCSCC1	62 to 65 °C
Cc1cc(-c2ccccc2)n[nH]1	127 to 128 °C
Cc1ccc(F)cc1	-56 °C
COP(=S)(OC)Oc1c(Cl)cc(C)cc1Cl	79 °C
C=CCNC(=O)C(O)C(O)C(=O)NCC=C (stereo not drawn)	182 to 186 °C
O=C(c1ccc2ccccc2c1)C(O)c1ccccc1 (stereo not drawn)	152 °C
O=[N+]([O-])c1c2c(c([N+](=O)[O-])c3c1CCCN3)NCCC2	187 °C
CSc1nc(N)nc(-c2cccs2)n1	176 to 177 °C

Reference: a melting point compilation (Tetko et al.)
